“Also recorded” adds a separate entry of the source.
Legend:
[1] = tested on: human CB2 receptors; assay: CB2 receptor internalization assay (conventional fluorescence microscopy); type: cell-based
Procedure: (§1) Receptor internalization assays for the CB2 receptor were performed using a high content imaging system (e.g., IN Cell Analyzer, GE Healthcare Life Sciences, Pittsburgh, Pa.), or by conventional fluorescence microscopy with accessory image analysis software.
[…]. On the day of the assay, growth media was removed from the cell plate and replaced with 25 μL pre-warmed RPMI media. Additionally, 25 μL of pre-warmed RPMI media containing a fluorescent nuclear stain (Hoescht 33342 dye (1:500 dilution); Catalog #H-1399, Invitrogen,) and fluorophore-labeled antibody (Alexa-488 anti-HA monoclonal antibody (1:50 dilution); Catalog #A-21287, Invitrogen, Waltham, Mass.) was added to the cell plate. Test compounds or CP55,940 dissolved in DMSO were serially diluted in DMSO and then further diluted in RPMI to achieve 3× concentrations in 0.5% DMSO. […] Fluorescence microscopy images were captured for each well on the plate (minimum of 6 per well). The internalization of anti-HA antibody-labeled CB2 receptors results in redistribution of fluorescence from the cell surface to intracellular endosomes, which appear as punctate fluorescent granules within the cell. Quantification of receptor internalization was performed by measuring the Alexa-488 anti-HA monoclonal antibody-stained intracellular granule fluorescence intensities normalized per cell number in each well. […]

[2] = tested on: MIA-induced osteoarthritis in male Sprague Dawley rats; assay: Osteoarthritis pain model (MIA); type: in vivo, rat; conditions: for in vivo efficacy over time in the osteoarthritis pain model: oral dosing; for time following dosing up to which in vivo efficacy was maintained / time of peak efficacy following dosing / time following dosing at which in vivo efficacy was lost: osteoarthritis pain model
Description: Injection of monosodium iodoacetate (MIA) into a joint (J Rheumatol 14:130-1, 1987) inhibits the activity of glyceraldehyde-3-phosphate dehydrogenase in chondrocytes, resulting in disruption of glycolysis and eventually in cell death. The progressive loss of chondrocytes results in histological and morphological changes of the articular cartilage, closely resembling those seen in osteoarthritis patients.
Osteoarthritis was induced in 200 g male Sprague Dawley rats. After brief anesthesia by isoflurane, rats received a single intra-articular injection of MIA (2 mg) (Catalog #19148, Sigma Aldrich, Saint Louis, Mo.) dissolved in 0.9% sterile saline in a 50 μL volume administered through the patella ligament into the joint space of the left knee with a 30 G needle. Following injection, animals were allowed to recover from anesthesia before being returned to the main housing vivarium.
Typically during disease progression, there is an inflammation period of 0-7 days post-intra-articular injection followed by progressive degeneration of the cartilage and subchondral bone from days 14-55. Efficacy studies with a compound described herein took place from day 14 onwards and were performed twice a week with at least three days of wash-out in between each assay. Three different assays can be used to measure pain. Tactile allodynia can be measured via von Frey assay, hind limb paw weight distribution can be monitored using an incapacitance tester (Columbus Instruments, Columbus, Ohio), and hind limb grip strength can be measured using a grip strength meter (Columbus Instruments, Columbus, Ohio). Briefly, the von Frey assay was performed using the standard up/down method with von Frey filaments. Hind paw weight distribution was determined by placing rats in a chamber so that each hind paw rested on a separate force plate of the incapacitance tester. The force exerted by each hind limb (measured in grams) was averaged over a three second period. Three measurements are taken for each rat, and the change in hind paw weight distribution was calculated. Peak hind limb grip force was conducted by recoding the maximum compressive force exerted on the hind limb mesh gauge set on the grip strength meter. During testing, each rat was restrained and the paw of the injected knee was allowed to grip the mesh. The animal was then pulled in an upward motion until their grip was broken. Each rat was tested three times, with the contralateral paw used as a control.
A baseline was established for animals prior to administration of compounds. The MIA-treated groups of rats were then dosed with either vehicle (PEG400, orally), test compound (at 3 mg/kg, 10 mg/kg, and 30 mg/kg, orally), or morphine (3 mg/kg, subcutaneously). The dosing volume was 500 μL. One hour after dosing, von Frey assay, hind limb weight distribution and/or hind limb grip analysis was performed to measure the efficacy of the test compounds.

[3] = Plasma concentration in the osteoarthritis pain model studies; type: in vivo, rat; conditions: for course of plasma concentration: during the pain model time course
[4] = target: T1, rat CB2 receptor (Rattus norvegicus, UniProt Q9QZN9); assay: CB2 receptor internalization assay (conventional fluorescence microscopy); type: cell-based; set-up: expressed in transfected cells; conditions: for receptor internalization efficacy relative to CP55,940, rat CB2: fluorescence microscopy; for receptor internalization: FIG. 10 comparison
T1 sequence (Q9QZN9 1-360): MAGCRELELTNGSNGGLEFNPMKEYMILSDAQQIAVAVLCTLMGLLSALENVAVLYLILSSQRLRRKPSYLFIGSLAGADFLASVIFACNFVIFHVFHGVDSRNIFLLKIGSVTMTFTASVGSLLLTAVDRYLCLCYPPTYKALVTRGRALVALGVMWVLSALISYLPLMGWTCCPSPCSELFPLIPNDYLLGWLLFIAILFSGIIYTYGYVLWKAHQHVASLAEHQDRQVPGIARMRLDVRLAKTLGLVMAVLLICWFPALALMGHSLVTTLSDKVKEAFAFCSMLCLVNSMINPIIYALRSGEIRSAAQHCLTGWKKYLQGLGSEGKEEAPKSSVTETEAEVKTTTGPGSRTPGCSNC
Procedure: as §1
[…]. On the day of the assay, growth media was removed from the cell plate and replaced with 25 μL pre-warmed RPMI media. Additionally, 25 μL of pre-warmed RPMI media containing a fluorescent nuclear stain (Hoescht 33342 dye (1:500 dilution); Catalog #H-1399, Invitrogen,) and fluorophore-labeled antibody (Alexa-488 anti-HA monoclonal antibody (1:50 dilution); Catalog #A-21287, Invitrogen, Waltham, Mass.) was added to the cell plate. Test compounds or CP55,940 dissolved in DMSO were serially diluted in DMSO and then further diluted in RPMI to achieve 3× concentrations in 0.5% DMSO. Aliquots (25 μL) of diluted test compounds were added to assay plates, which were then incubated in a water bath at 37° C. for 1 hour. Compound containing media was removed at the end of the treatment period by inversion of the plate. The assay plate was washed twice with PBS (150 μL/well) and the cells were then fixed with 2% formaldehyde/PBS solution for 10 minutes at room temperature. Fluorescence microscopy images were captured for each well on the plate (minimum of 6 per well). The internalization of anti-HA antibody-labeled CB2 receptors results in redistribution of fluorescence from the cell surface to intracellular endosomes, which appear as punctate fluorescent granules within the cell. Quantification of receptor internalization was performed by measuring the Alexa-488 anti-HA monoclonal antibody-stained intracellular granule fluorescence intensities normalized per cell number in each well. Dose-response curves were generated using a minimum of 8 different test concentrations and triplicate determinations were made at each test concentration. Assay performance was monitored by inclusion of a standard CB2 reference agonist such as CP55,940 and agonist internalization efficacies were reported relative to that of the reference agonist.

[5] = target: T2, hCB2 (Homo sapiens, UniProt P34972); assay: β-arrestin recruitment assay (PathHunter CHO-K1); type: cell-based; set-up: host or cells: PathHunter CHO-K1; conditions: relative to CP55,940
[6] = target: T1, rat CB2 receptor; assay: β-arrestin recruitment assay (PathHunter CHO-K1); type: cell-based; set-up: host or cells: PathHunter CHO-K1; conditions: relative to CP55,940
[7] = target: T2, hCB2; conditions: cited from earlier work
[8] = target: CB1 (Homo sapiens, UniProt P21554); conditions: read-out: potency in GTP-γS binding assays, CB1 receptor; cited from earlier work
[9] = tested on: CB2 receptor over CB1 receptor; conditions: Eur. Urol. 2010 FIG. 2a; cited from earlier work

T2 sequence (P34972 whole entry): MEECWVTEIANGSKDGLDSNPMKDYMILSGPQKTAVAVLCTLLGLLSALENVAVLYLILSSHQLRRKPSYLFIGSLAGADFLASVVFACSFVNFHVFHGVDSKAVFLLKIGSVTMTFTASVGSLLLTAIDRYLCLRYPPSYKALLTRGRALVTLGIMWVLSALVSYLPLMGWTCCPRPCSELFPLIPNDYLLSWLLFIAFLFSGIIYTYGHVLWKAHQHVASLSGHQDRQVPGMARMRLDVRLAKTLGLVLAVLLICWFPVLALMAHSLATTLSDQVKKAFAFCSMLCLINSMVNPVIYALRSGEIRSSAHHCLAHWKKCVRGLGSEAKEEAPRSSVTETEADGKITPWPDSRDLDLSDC
CB1, sequence (P21554 whole entry): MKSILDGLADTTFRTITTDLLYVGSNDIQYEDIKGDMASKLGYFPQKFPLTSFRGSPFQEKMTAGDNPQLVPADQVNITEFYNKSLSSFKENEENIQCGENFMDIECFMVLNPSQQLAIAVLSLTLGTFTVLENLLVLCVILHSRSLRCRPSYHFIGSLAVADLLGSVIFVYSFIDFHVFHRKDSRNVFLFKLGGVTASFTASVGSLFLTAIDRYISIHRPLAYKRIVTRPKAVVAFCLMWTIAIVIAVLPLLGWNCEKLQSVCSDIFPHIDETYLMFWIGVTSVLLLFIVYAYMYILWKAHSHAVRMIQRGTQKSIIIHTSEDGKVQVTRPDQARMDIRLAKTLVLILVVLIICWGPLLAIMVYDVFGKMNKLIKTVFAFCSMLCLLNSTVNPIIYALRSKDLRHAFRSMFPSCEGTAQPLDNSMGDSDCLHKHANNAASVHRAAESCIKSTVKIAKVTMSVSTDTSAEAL

In the case of `CC(C)(NC(=O)c1nn(-c2c[n+]([O-])ccn2)c2c1C[C@@H]1C[C@H]21)C(F)(F)F` [Compound 919], the “receptor internalization efficacy relative to CP55,940, human CB2” value [1] is reported as 95%, the “in vivo efficacy over time in the osteoarthritis pain model” value (from here on “in vivo efficacy over time”) [2] is reported as “sustained in vivo efficacy” and the “time following dosing up to which in vivo efficacy was maintained” value (shortened to “time following dosing up to which”) [2] is reported as “six”. For the same molecule, the “course of plasma concentration” value [3] was “rapidly declining plasma concentrations; also recorded: decreasing plasma concentrations” and the “receptor internalization efficacy relative to CP55,940, rat CB2” value [4] was 92%.

For `CNC(=O)[C@@H](NC(=O)c1nn(-c2c[n+]([O-])ccn2)c2c1C[C@H]1C[C@@H]21)C(C)(C)C` [Compound 704], the “in vivo efficacy over time” value [2] was “rapid loss of in vivo efficacy”, the “time of peak efficacy following dosing” value [2] was “one” and the “course of plasma concentration” value [3] was “increasing plasma concentrations”. The “β-arrestin efficacy compared to CP55,940, human CB2” value [5] was 106% and the “β-arrestin efficacy compared to CP55,940, rat CB2” value [6] was 88%.

For `CCCCCCC(C)(C)c1cc(O)c(C2CC(=O)[C@H]3C[C@@H]2C3(C)C)c(OC(=O)/C=C/C(=O)O)c1` (some centres unmarked) [cannabinor], the “agonist character at the CB2 receptor upon closer examination of the published data” value ([7]; Eur. Urol. 2010 FIG. 2b) is listed as “only a partial agonist”, the “agonist character at the human CB2 receptor as the publication suggests” value [7] is listed as “full agonist” and the “selectivity for the CB2 receptor over the CB1 receptor (GTP-γS)” value [7] is listed as 321 fold. The EC50 ([7]; read-out: potency in GTP-γS binding assays, CB2 receptor) was 17.4 nM, the EC50 [8] was 5590 nM and the “selectivity measured in radioligand binding assays” value [9] was “approximately 10 fold”.

With `CC(C)(CO)NC(=O)c1nn(-c2ccc(F)cc2F)c2c1C[C@H]1C[C@@H]21` [Compound 493] the “in vivo efficacy over time” value [2] was “rapid loss of in vivo efficacy”, the “time following dosing at which in vivo efficacy was lost” value [2] was “two and four” and the “course of plasma concentration” value [3] was “high plasma concentrations that did not decline significantly until four hours following dosing”. The “receptor internalization” value [4] was “low receptor internalization” and the “receptor internalization efficacy relative to CP55,940, rat CB2” value [4] was 58%.

In the case of `O=C(NC1(C(F)(F)F)CCC1)c1nn(-c2c[n+]([O-])ccn2)c2c1C[C@@H]1C[C@H]21` [Compound 765], the “receptor internalization efficacy relative to CP55,940, human CB2” value [1] is reported as 97%, the “in vivo efficacy over time” value [2] is reported as “sustained in vivo efficacy” and the “time following dosing up to which” value [2] is reported as “six”. For the same molecule, the “course of plasma concentration” value [3] was “decreasing plasma concentrations” and the “receptor internalization efficacy relative to CP55,940, rat CB2” value [4] was 99%.

With `O=C(N[C@H](CO)C1CCOCC1)c1nn(-c2c[n+]([O-])ccn2)c2c1C[C@H]1C[C@@H]21` [Compound 841] the “in vivo efficacy over time” value [2] was “sustained in vivo efficacy”, the “time following dosing at which in vivo efficacy was lost” value [2] was “six” and the “time following dosing up to which” value [2] was “four”. The “course of plasma concentration” value [3] was “rapidly declining plasma concentrations; also recorded: decreasing plasma concentrations”, the concentration at 6 h ([3]; rat, plasma, oral, when efficacy was lost, read-out: plasma drug levels at the six hour timepoint) was < 3 ng/mL and the “receptor internalization” value [4] was “high receptor internalization”. For the same molecule, the “receptor internalization efficacy relative to CP55,940, rat CB2” value [4] was 105%.

For `CC(CO)(CO)NC(=O)c1nn(-c2cc(C#N)ccn2)c2c1C[C@H]1C[C@@H]21` [Compound 820], the “in vivo efficacy over time” value [2] was “rapid loss of in vivo efficacy”, the “time of peak efficacy following dosing” value [2] was “one” and the “course of plasma concentration” value [3] was “high plasma concentrations”. The “β-arrestin efficacy compared to CP55,940, human CB2” value [5] was 82% and the “β-arrestin efficacy compared to CP55,940, rat CB2” value [6] was 56%.

From patent US20180252736A1, “CB2 RECEPTOR INTERNALIZATION” (Arena Pharmaceuticals, Inc., priority 2015, published 2018)
